Laboratory results taken from the CheMixHub drug solubility set.

Experiment: xn = mol fraction of the nth substance listed, in the solute-free solvent

NCCS(=O)(=O)O + O + CC#N
solubility (g/100 g solution) (298.15 K, x2 = 0.6949): 0.528
solubility (g/100 g solution) (298.15 K, x2 = 0.7736): 1.15
solubility (g/100 g solution) (298.15 K, x2 = 0.8417): 2.09
solubility (g/100 g solution) (298.15 K, x2 = 0.9011): 3.76
solubility (g/100 g solution) (298.15 K, x2 = 0.9535): 6.1
solubility (g/100 g solution) (303.15 K, x2 = 0.6949): 0.562
solubility (g/100 g solution) (303.15 K, x2 = 0.7736): 1.28
solubility (g/100 g solution) (303.15 K, x2 = 0.8417): 2.47
solubility (g/100 g solution) (303.15 K, x2 = 0.9011): 4.25
solubility (g/100 g solution) (303.15 K, x2 = 0.9535): 7.22
solubility (g/100 g solution) (308.15 K, x2 = 0.6949): 0.597
solubility (g/100 g solution) (308.15 K, x2 = 0.7736): 1.37
solubility (g/100 g solution) (308.15 K, x2 = 0.8417): 2.66
solubility (g/100 g solution) (308.15 K, x2 = 0.9011): 4.87
solubility (g/100 g solution) (308.15 K, x2 = 0.9535): 8.46
solubility (g/100 g solution) (313.15 K, x2 = 0.6949): 0.644
solubility (g/100 g solution) (313.15 K, x2 = 0.7736): 1.54
solubility (g/100 g solution) (313.15 K, x2 = 0.8417): 2.99
solubility (g/100 g solution) (313.15 K, x2 = 0.9011): 6.01
solubility (g/100 g solution) (313.15 K, x2 = 0.9535): 9.89
solubility (g/100 g solution) (318.15 K, x2 = 0.6949): 0.864
solubility (g/100 g solution) (318.15 K, x2 = 0.7736): 1.75
solubility (g/100 g solution) (318.15 K, x2 = 0.8417): 3.69
solubility (g/100 g solution) (318.15 K, x2 = 0.9011): 7.16
solubility (g/100 g solution) (318.15 K, x2 = 0.9535): 11.6

O=C(O)C1CC(O)CN1 (centres undefined) + O + CC#N
solubility (g/100 g solution) (283.15 K, x2 = 0.1): 0.0362
solubility (g/100 g solution) (283.15 K, x2 = 0.2): 0.0575
solubility (g/100 g solution) (283.15 K, x2 = 0.3): 0.0864
solubility (g/100 g solution) (283.15 K, x2 = 0.4): 0.185
solubility (g/100 g solution) (283.15 K, x2 = 0.6): 0.635
solubility (g/100 g solution) (283.15 K, x2 = 0.7): 1.45
solubility (g/100 g solution) (283.15 K, x2 = 0.8): 3.22
solubility (g/100 g solution) (283.15 K, x2 = 0.9): 9.59
solubility (g/100 g solution) (293.15 K, x2 = 0.1): 0.0605
solubility (g/100 g solution) (293.15 K, x2 = 0.2): 0.101
solubility (g/100 g solution) (293.15 K, x2 = 0.3): 0.188
solubility (g/100 g solution) (293.15 K, x2 = 0.4): 0.517
solubility (g/100 g solution) (293.15 K, x2 = 0.5): 1.13
solubility (g/100 g solution) (293.15 K, x2 = 0.6): 1.82
solubility (g/100 g solution) (293.15 K, x2 = 0.7): 2.8
solubility (g/100 g solution) (293.15 K, x2 = 0.8): 4.82
solubility (g/100 g solution) (293.15 K, x2 = 0.9): 12.7
solubility (g/100 g solution) (303.15 K, x2 = 0.1): 0.0971
solubility (g/100 g solution) (303.15 K, x2 = 0.2): 0.136
solubility (g/100 g solution) (303.15 K, x2 = 0.3): 0.287
solubility (g/100 g solution) (303.15 K, x2 = 0.4): 0.813
solubility (g/100 g solution) (303.15 K, x2 = 0.5): 1.6
solubility (g/100 g solution) (303.15 K, x2 = 0.6): 2.88
solubility (g/100 g solution) (303.15 K, x2 = 0.7): 4.48
solubility (g/100 g solution) (303.15 K, x2 = 0.8): 7.02
solubility (g/100 g solution) (303.15 K, x2 = 0.9): 15.9
solubility (g/100 g solution) (313.15 K, x2 = 0.1): 0.128
solubility (g/100 g solution) (313.15 K, x2 = 0.2): 0.203
solubility (g/100 g solution) (313.15 K, x2 = 0.3): 0.398
solubility (g/100 g solution) (313.15 K, x2 = 0.4): 1.08
solubility (g/100 g solution) (313.15 K, x2 = 0.5): 2.25
solubility (g/100 g solution) (313.15 K, x2 = 0.6): 3.66
solubility (g/100 g solution) (313.15 K, x2 = 0.7): 6.08
solubility (g/100 g solution) (313.15 K, x2 = 0.8): 11.3
solubility (g/100 g solution) (313.15 K, x2 = 0.9): 21.4
solubility (g/100 g solution) (323.15 K, x2 = 0.1): 0.187
solubility (g/100 g solution) (323.15 K, x2 = 0.2): 0.327
solubility (g/100 g solution) (323.15 K, x2 = 0.3): 0.778
solubility (g/100 g solution) (323.15 K, x2 = 0.4): 1.71
solubility (g/100 g solution) (323.15 K, x2 = 0.5): 3.12
solubility (g/100 g solution) (323.15 K, x2 = 0.6): 5.6
solubility (g/100 g solution) (323.15 K, x2 = 0.7): 10.2
solubility (g/100 g solution) (323.15 K, x2 = 0.8): 16.7
solubility (g/100 g solution) (323.15 K, x2 = 0.9): 24.8

NCCS(=O)(=O)O + O + CC(O)CO
solubility (g/100 g solution) (298.15 K, x2 = 0.8085): 0.283
solubility (g/100 g solution) (298.15 K, x2 = 0.8636): 0.605
solubility (g/100 g solution) (298.15 K, x2 = 0.9079): 0.929
solubility (g/100 g solution) (298.15 K, x2 = 0.9441): 1.72
solubility (g/100 g solution) (298.15 K, x2 = 0.9744): 3.42
solubility (g/100 g solution) (303.15 K, x2 = 0.8085): 0.373
solubility (g/100 g solution) (303.15 K, x2 = 0.8636): 0.646
solubility (g/100 g solution) (303.15 K, x2 = 0.9079): 1
solubility (g/100 g solution) (303.15 K, x2 = 0.9441): 2.03
solubility (g/100 g solution) (303.15 K, x2 = 0.9744): 4.2
solubility (g/100 g solution) (308.15 K, x2 = 0.8085): 0.413
solubility (g/100 g solution) (308.15 K, x2 = 0.8636): 0.75
solubility (g/100 g solution) (308.15 K, x2 = 0.9079): 1.36
solubility (g/100 g solution) (308.15 K, x2 = 0.9441): 2.51
solubility (g/100 g solution) (308.15 K, x2 = 0.9744): 5.01
solubility (g/100 g solution) (313.15 K, x2 = 0.8085): 0.484
solubility (g/100 g solution) (313.15 K, x2 = 0.8636): 0.914
solubility (g/100 g solution) (313.15 K, x2 = 0.9079): 1.64
solubility (g/100 g solution) (313.15 K, x2 = 0.9441): 3.03
solubility (g/100 g solution) (313.15 K, x2 = 0.9744): 5.6
solubility (g/100 g solution) (318.15 K, x2 = 0.8085): 0.694
solubility (g/100 g solution) (318.15 K, x2 = 0.8636): 1.26
solubility (g/100 g solution) (318.15 K, x2 = 0.9079): 2.12
solubility (g/100 g solution) (318.15 K, x2 = 0.9441): 3.67
solubility (g/100 g solution) (318.15 K, x2 = 0.9744): 6.88

NC(Cc1c[nH]c2ccccc12)C(=O)O (centres undefined) + O + CO
solubility (g/100 g solution) (288.15 K, x2 = 0.1908): 0.556
solubility (g/100 g solution) (288.15 K, x2 = 0.3955): 0.677
solubility (g/100 g solution) (288.15 K, x2 = 0.595): 0.827
solubility (g/100 g solution) (288.15 K, x2 = 0.7962): 1.02
solubility (g/100 g solution) (293.15 K, x2 = 0.1908): 0.608
solubility (g/100 g solution) (293.15 K, x2 = 0.3955): 0.741
solubility (g/100 g solution) (293.15 K, x2 = 0.595): 0.902
solubility (g/100 g solution) (293.15 K, x2 = 0.7962): 1.11
solubility (g/100 g solution) (298.15 K, x2 = 0.1908): 0.684
solubility (g/100 g solution) (298.15 K, x2 = 0.3955): 0.831
solubility (g/100 g solution) (298.15 K, x2 = 0.595): 1.01
solubility (g/100 g solution) (298.15 K, x2 = 0.7962): 1.23
solubility (g/100 g solution) (303.15 K, x2 = 0.1908): 0.776
solubility (g/100 g solution) (303.15 K, x2 = 0.3955): 0.94
solubility (g/100 g solution) (303.15 K, x2 = 0.595): 1.14
solubility (g/100 g solution) (303.15 K, x2 = 0.7962): 1.38
solubility (g/100 g solution) (308.15 K, x2 = 0.1908): 0.875
solubility (g/100 g solution) (308.15 K, x2 = 0.3955): 1.06
solubility (g/100 g solution) (308.15 K, x2 = 0.595): 1.28
solubility (g/100 g solution) (308.15 K, x2 = 0.7962): 1.56

NCCS(=O)(=O)O + O + OCCO
solubility (g/100 g solution) (298.15 K, x2 = 0.775): 1.2
solubility (g/100 g solution) (298.15 K, x2 = 0.8378): 1.63
solubility (g/100 g solution) (298.15 K, x2 = 0.8893): 2.24
solubility (g/100 g solution) (298.15 K, x2 = 0.9323): 3.39
solubility (g/100 g solution) (298.15 K, x2 = 0.9688): 5.08
solubility (g/100 g solution) (303.15 K, x2 = 0.775): 1.44
solubility (g/100 g solution) (303.15 K, x2 = 0.8378): 1.92
solubility (g/100 g solution) (303.15 K, x2 = 0.8893): 2.94
solubility (g/100 g solution) (303.15 K, x2 = 0.9323): 4.12
solubility (g/100 g solution) (303.15 K, x2 = 0.9688): 6.22
solubility (g/100 g solution) (308.15 K, x2 = 0.775): 1.68
solubility (g/100 g solution) (308.15 K, x2 = 0.8378): 2.28
solubility (g/100 g solution) (308.15 K, x2 = 0.8893): 3.18
solubility (g/100 g solution) (308.15 K, x2 = 0.9323): 4.67
solubility (g/100 g solution) (308.15 K, x2 = 0.9688): 7.45
solubility (g/100 g solution) (313.15 K, x2 = 0.775): 2.16
solubility (g/100 g solution) (313.15 K, x2 = 0.8378): 2.83
solubility (g/100 g solution) (313.15 K, x2 = 0.8893): 3.64
solubility (g/100 g solution) (313.15 K, x2 = 0.9323): 5.48
solubility (g/100 g solution) (313.15 K, x2 = 0.9688): 8.66
solubility (g/100 g solution) (318.15 K, x2 = 0.775): 2.27
solubility (g/100 g solution) (318.15 K, x2 = 0.8378): 3.17
solubility (g/100 g solution) (318.15 K, x2 = 0.8893): 4.08
solubility (g/100 g solution) (318.15 K, x2 = 0.9323): 6.21
solubility (g/100 g solution) (318.15 K, x2 = 0.9688): 10.1
